From patent US20250188061A1, “NOVEL DEUTERATED PYRIMIDIN-2-YL SULFONAMIDE DERIVATIVES” (Hoffmann-La Roche Inc., priority 2022, published 2025)

Target: human GPR17 short isoform (Homo sapiens, UniProt Q13304)
Assay: GPR17 cAMP assay (hGPR17 cAMP, antagonist mode)
Type: cell-based
Conditions: CHO-K1 cells stably expressing human GPR17 short isoform; EC80 of agonist MDL29,951; forskolin 15 μM; TR-FRET cAMP
Source text: Changes in intracellular cyclic adenosine monophosphate (cAMP) levels were quantified using the Nano-TRF Detection Assay kit (Roche Diagnostics, Cat. No. 05214386001). This assay allows for direct cAMP quantification in a homogeneous solution. cAMP is detected based on time-resolved fluorescence energy transfer (TR-FRET) and competitive binding of ruthenylated cAMP and endogenous cAMP to an anti-cAMP monoclonal antibody labeled with AlexaFluor-700. The Ruthenium complex serves as the FRET donor and transfers energy to AlexaFluor-700. The FRET signal is inversely proportional to the cAMP concentration.
CHO-GPR17S cells were detached with Accutase and resuspended in assay buffer consisting of Hank's Balanced Salt Solution (HBSS), 10 mM HEPES (4-(2-hydroxyethyl) piperazine-1-ethanesulfonic acid solution) and 0.1% bovine serum albumin (pH 7.4). The cells were seeded in black 384-well plates (Corning) at a density of 10,000 cells/20 μl assay buffer until the addition of compounds.
Test antagonist compounds were serially diluted in dimethyl sulfoxide (DMSO) and spotted in 384-well plates. The compounds were then diluted in HBSS buffer supplemented with an EC80 concentration of MDL29,951 (3-(2-Carboxy-4,6-dichloroindol-3-yl) propionic acid) (GPR17 agonist) plus 3-Isobutyl-1-methylxanthine (IBMX) (0.5 mM final concentration) and added to the cells at room temperature. Forskolin (15 μM final concentration) was added 5 minutes after the test compounds and the cells were incubated at room temperature for 30 minutes. The assay was stopped by adding cAMP detection mix (containing detergents for cell lysis) for 90 minutes at room temperature.
Cellular cAMP was measured using a Paradigm reader (Molecular Devices). The raw data was used to calculate the FRET signal based on the assay's P-factor as per cAMP kit instructions. The data was normalized to the maximal activity of a reference antagonist and dose response curves were fitted to the percent activity of the test compounds using a sigmoidal dose response model (Genedata Screener).

Chain of human GPR17 short isoform (Q13304 29-367): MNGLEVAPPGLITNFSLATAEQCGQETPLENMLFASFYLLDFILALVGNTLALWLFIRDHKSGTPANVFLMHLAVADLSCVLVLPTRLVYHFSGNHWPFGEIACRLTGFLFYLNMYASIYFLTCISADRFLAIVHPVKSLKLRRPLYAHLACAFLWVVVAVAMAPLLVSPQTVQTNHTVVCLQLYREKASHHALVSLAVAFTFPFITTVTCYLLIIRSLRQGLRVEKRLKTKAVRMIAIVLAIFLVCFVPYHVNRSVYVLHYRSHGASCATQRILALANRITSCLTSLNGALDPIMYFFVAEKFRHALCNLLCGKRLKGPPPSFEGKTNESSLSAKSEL

Row | IC50 [nM] | SMILES
1 | 23 | [2H]C([2H])(c1c(OC)nc(NS(=O)(=O)c2c[nH]c3nc(Br)ccc23)nc1OC)C(F)F [Example 9, 6-bromo-N-[5-(1,1-dideuterio-2,2-difluoro-ethyl)-4,6-dimethoxy-pyrimidin-2-yl]-1H-pyrrolo[2,3-b]pyridine-3-sulfonamide]
2 | 37 | [2H]C([2H])(c1c(OC)nc(NS(=O)(=O)c2c[nH]c3nc(Cl)ccc23)nc1OC)C(F)F [Example 11, 6-chloro-N-[5-(1,1-dideuterio-2,2-difluoro-ethyl)-4,6-dimethoxy-pyrimidin-2-yl]-1H-pyrrolo[2,3-b]pyridine-3-sulfanomide]
3 | 57 | [2H]C([2H])(c1c(OC)nc(NS(=O)(=O)c2c[nH]c3nc(C)ccc23)nc1OC)C(F)F [Example 12, N-[5-(1,1-dideuterio-2,2-difluoro-ethyl)-4,6-dimethoxy-pyrimidin-2-yl]-6-methyl-1H-pyrrolo [2,3-b]pyridine-3-sulfonamide]
4 | 81 | [2H]C([2H])(Oc1c(OC)nc(NS(=O)(=O)c2c[nH]c3nc(Br)ccc23)nc1OC)C(F)F [Example 10, 6-bromo-N-[5-(1,1-dideuterio-2,2-difluoro-ethoxy)-4,6-dimethoxy-pyrimidin-2-yl]-1H-pyrrolo[2,3-b]pyridine-3-sulfonamide]

Second part, the molecule before the results:

Row | SMILES | IC50 [nM]
5 | [2H]C([2H])(CF)Oc1cnc(NS(=O)(=O)c2c[nH]c3c(F)c(Cl)ccc23)nc1OC [Example 6, 6-chloro-N-[5-(1,1-dideuterio-2-fluoro-ethoxy)-4-methoxy-pyrimidin-2-yl]-7-fluoro-1H-indole-3-sulfonamide] | 105
6 | [2H]C([2H])(F)C([2H])([2H])Oc1c(OC)nc(NS(=O)(=O)c2c[nH]c3nc(Cl)ccc23)nc1OC [Example 3, 6-chloro-N-[4,6-dimethoxy-5-(1,1,2,2-tetradeuterio-2-fluoro-ethoxy)pyrimidin-2-yl]-1H-pyrrolo[2,3-b]pyridine-3-sulfonamide] | 63
7 | [2H]C([2H])(c1cnc(NS(=O)(=O)c2c[nH]c3cc(F)ccc23)nc1OC)C(F)F [Example 4, N-[5-(1,1-dideuterio-2,2-difluoro-ethyl)-4-methoxy-pyrimidin-2-yl]-6-fluoro-1H-indole-3-sulfonamide] | 94
8 | [2H]C([2H])(F)C([2H])([2H])Oc1cnc(NS(=O)(=O)c2c[nH]c3c(F)c(Cl)ccc23)nc1OC [Example 1, 6-chloro-7-fluoro-N-[4-methoxy-5-(1,1,2,2-tetradeuterio-2-fluoro-ethoxy)pyrimidin-2-yl]-1H-indole-3-sulfonamide] | 85
9 | [2H]C([2H])(c1cnc(NS(=O)(=O)c2c[nH]c3cc(Cl)ccc23)nc1OC)C(F)F [Example 7, 6-chloro-N-[5-(1,1-dideuterio-2,2-difluoro-ethyl)-4-methoxy-pyrimidin-2-yl]-1H-indole-sulfonamide] | 55
10 | [2H]C([2H])(F)C([2H])([2H])Oc1c(OC)nc(NS(=O)(=O)c2c[nH]c3nc(Br)ccc23)nc1OC [Example 2, 6-bromo-N-[4,6-dimethoxy-5-(1,1,2,2-tetradeuterio-2-fluoro-ethoxy)pyrimidin-2-yl]-1H-pyrrolo [2,3-b]pyridine-3-sulfonamide] | 42
11 | [2H]C([2H])(c1cnc(NS(=O)(=O)c2c[nH]c3c(F)c(Br)ccc23)nc1OC)C(F)F [Example 8, 6-bromo-N-[5-(1,1-dideuterio-2,2-difluoro-ethyl)-4-methoxy-pyrimidin-2-yl]-7-fluoro-1H-indole-3-sulfonamide] | 137
12 | [2H]C([2H])(c1cnc(NS(=O)(=O)c2c[nH]c3c(F)c(Cl)ccc23)nc1OC)C(F)F [Example 5, 6-chloro-N-[5-(1,1-dideuterio-2,2-difluoro-ethyl)-4-methoxy-pyrimidin-2-yl]-7-fluoro-1H-indole-3-sulfonamide] | 107
